Values of other authors in patent publication US20120034273A1, “EXTRUDATE HAVING SPICULAR ACTIVE SUBSTANCES” (Bayer Animal Health GmbH, priority 2008, published 2012).

Conditions: stated in words, no test described

For `O=C(C1CCCCC1)N1CC(=O)N2CCc3ccccc3C2C1` (stereo not shown) [praziquantel], the solubility in water is listed as “poorly soluble in water”.
